The record followed here is patent US7998969B2, “Non-nucleoside reverse transcriptase inhibitors” (Roche Palo Alto LLC, priority 2006, dated 2011).

In data set [1] the target is HIV-1 reverse transcriptase (HIV-RT enzyme) (Human immunodeficiency virus type 1 group M subtype B, UniProt P03366). Kind of data set: HIV-1 Reverse Transcriptase Assay Inhibitor IC50 Determination (RNA-dependent DNA polymerase activity, SPA). Type of data set: biochemical. Here is the method: HIV-1 Reverse Transcriptase Assay Inhibitor IC50 Determination
RNA-dependent DNA polymerase activity was measured using a biotinylated primer oligonucleotide and tritiated dNTP substrate. Newly synthesized DNA was quantified by capturing the biotinylated primer molecules on streptavidin coated Scintillation Proximity Assay (SPA) beads (Amersham). The sequences of the polymerase assay substrate were: 18 nt DNA primer, 5′-Biotin/GTC CCT GTT CGG GCG CCA-3′; 47 nt RNA template, 5′-GGGUCUCUCUGGUUAGACCACUCUAGCAGUGGCGCCCGAACAGGGAC-3′. The biotinylated DNA primer was obtained from the Integrated DNA Technologies Inc. and the RNA template was synthesized by Dharmacon. The DNA polymerase assay (final volume 50 μl) contained 32 nM biotinylated DNA primer, 64 nM RNA substrate, dGTP, dCTP, dTTP (each at 5 μM), 103 nM [^3H]-dATP (specific activity=[…]), in 45 mM Tris-HCl, pH 8.0, 45 mM NaCl, 2.7 mM Mg(CH3COO)2, 0.045% Triton X-100 w/v, 0.9 mM EDTA. The reactions contained 5 μl of serial compound dilutions in 100% DMSO for IC50 determination and the final concentrations of DMSO were 10%. Reactions were initiated by the addition of […] of the HIV-RT enzyme (final concentrations of 1-3 nM). Protein concentrations were adjusted to provide linear product formation for at least 30 min of incubation. After incubation at 30° for 30 min, the reaction was quenched by addition of 50 μl of 200 mM EDTA (pH 8.0) and 2 mg/ml SA-PVT SPA beads (Amersham, RPNQ0009, reconstituted in 20 mM Tris-HCl, pH 8.0, 100 mM EDTA and 1% BSA). The beads were left to settle overnight and the SPA signals were counted in a 96-well top counter-NXT (Packard). IC50 values were obtained by sigmoidal regression analysis using GraphPad Prism 3.0 (GraphPad Software, Inc.).

Data set [2] concerns wild-type laboratory strain HIV-1HXB2. The data set is described as follows: Recombinant HIV-1 Antiviral Assay (MTT cell viability assay with MT-4 cells). The conditions noted are these: Human immunodeficiency virus 1, MT4, 120 h. The class given is cell-based. Here is the method:
Recombinant HIV-1 Antiviral Assay
The sensitivity of a wild-type laboratory strain HIV-1HXB2 to described compounds was determined by the 3-[4,5-dimethylthiazol-2yl]-2,5-diphenyltetrazolium bromide (MTT) cell viability assay with MT-4 cells (R. Pauwels et al., “Rapid and automated tetrazolium-based colorimetric assay for the detection of anti-HIV compounds,” J. Virological Methods 1988 20:309-321). Briefly, MT-4 cells were incubated with virus (MOI 0.0001) for 1 h at 37° C. and then resuspended at 7.5×10^5/mL in RPMI 1640 (with out phenol) (Gibco) with 10% FCS and antibiotics and plated out onto a 96 well plate (Corning Costar, USA). After 5 days incubation 20 μL of MTT (Sigma-Aldrich) (5 mg/mL in PBS) was added and the plates were incubated for 2 h before the addition of 170 μL of acidified IPA. The absorbance was measured at 540 nm and the TCID50 determined by Spearman-Karber method.

The mark [3] stands for this setting: MT-4 cells infected with HIV-1HXB2, MTT readout after 5 days, read-out: Antiviral Activity IC50.
Where [4] appears, read: SPA polymerase assay, 30 min at 30°, read-out: HIVRT inhibition IC50.

As a reminder, the melting point is the temperature of the solid-liquid transition. For orientation: IC50 means the concentration that inhibits the measured activity by half.

Like-named read-outs stand apart in the source and are kept apart here.

In turn, `Cc1cc(C#N)cc(C)c1Oc1ccnc(NC2CCN(Cc3ccccc3)CC2)n1` [I-1, 4-[2-(1-Benzyl-piperidin-4-ylamino)-pyrimidin-4-yloxy]-3,5-dimethyl-benzonitrile] came in with a melting point of 162 to 163.3 °C.
The same measure, in the same setting: as for `Cc1cc(C#N)cc(C)c1Oc1nc(NC2CCN(Cc3ccccc3)CC2)ncc1Br` [I-2, 4-[2-(1-Benzyl-piperidin-4-ylamino)-5-bromo-pyrimidin-4-yloxy]-3,5-dimethyl-benzonitrile], the figure is 158 to 159.8 °C.
Consider `Cc1cc(C#N)cc(C)c1Oc1ccnc(NC2CCN(Cc3ccc(S(C)(=O)=O)cc3)CC2)n1` [I-3, 4-{2-[1-(4-Methanesulfonyl-benzyl)-piperidin-4-ylamino]-pyrimidin-4-yloxy}-3,5-dimethyl-benzonitrile], for which the IC50 in data set [1] is 0.0341 µM; in data set [2] (setting [3]), 0.003 µM.
Regarding `Cc1cc(C#N)cc(C)c1Oc1nc(NC2CCN(Cc3ccc(S(N)(=O)=O)cc3Cl)CC2)nc(N)c1Br` [II-1], the IC50 came to 0.105 µM in data set [1] (setting [4]) and 0.0086 µM in data set [2] (read-out: Antiviral Activity IC50(μM)).
As for `Cc1cc(C#N)cc(C)c1Nc1ccnc(NC2CCN(Cc3ccc(S(C)(=O)=O)cc3Cl)CC2)n1` [III-1, 4-{2-[1-(2-Chloro-4-methanesulfonyl-benzyl)-piperidin-4-ylamino]-pyrimidin-4-ylamino}-3,5-dimethyl-benzonitrile], the IC50 was determined as 0.0257 µM in data set [1] and 0.0022 µM in data set [2] (setting [3]).
For `Cc1cc(C#N)cc(C)c1Oc1ccnc(NC2CCN(c3cccc(S(N)(=O)=O)c3)CC2)n1` [IV-3] the same measures were 0.0147 µM and 0.0004 µM.
In the same order, the values of `Cc1cc(C#N)cc(Cl)c1Oc1nc(NC2CCN(c3cccc(C(N)=O)c3)CC2)ncc1Br` [IV-13] are 0.0279 µM and 0.0058 µM.
In the case of `Cc1cc(C#N)cc(C)c1Oc1ccnc(NC2CCN(c3cc(Cl)cc(C#N)c3)CC2)n1` [IV-23], in data set [1] (setting [4]), the IC50 is 0.0377 µM.
`Cc1cc(C#N)cc(C)c1Nc1nc(NC2CCN(c3cccc(C#N)c3)CC2)ncc1Br` [V-3]: the IC50 in data set [1] (setting [4]) came to 0.04 µM.
On to `Cc1cc(C#N)cc(C)c1Nc1nc(NC2CCN(c3cccc(C(N)=O)c3)CC2)ncc1Br` [V-5], for which the IC50 in data set [1] worked out at 0.0281 µM; in data set [2] (setting [3]), 0.0015 µM.
